Experimental data as given in patent US20240327393A1 (SIRONAX LTD., priority 2021, published 2024).

Test system: HT-1080 (ATCC, CCL-121) cells
Assay: HT-1080 cell viability assay with ferroptosis inducer RSL3 (Cell Titer-Glo)
Assay type: cell-based
Conditions: HT-1080 cells treated with RSL3; 3-fold, 10-point dilution, 1.1 μM highest concentration; Table 3; read-out: EC50 (nM), ferroptosis inhibitory activity
Outline: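 HT-1080 cells (6000 per well) were cultured overnight at 37 °C, then co-treated with RSL3 and compound in a 3-fold, 10-point series topping at 1.1 μM. Viability was read by CellTiter-Glo luminescence and normalized to untreated controls. EC50 came from a sigmoidal non-linear regression fit.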

Row | EC50 [nM] | Structure (SMILES)
1 | 0.1 to 100 | CC1CN(c2ccc(Nc3ccc4c(c3)nnn4C)cc2)CC(C)O1 (stereo not shown) [Compound 458, N-(4-(2,6-dimethylmorpholino)phenyl)-1-methyl-1H-benzo[d][1,2,3]triazol-5-amine]

Same assay, conditions: Homo sapiens; HT-1080 cells treated with RSL3; 3-fold, 10-point dilution, 1.1 μM highest concentration; Table 2; read-out: EC50 (nM), ferroptosis inhibitory activity

Row | Structure (SMILES) | EC50 [nM]
2 | CC1CN(c2ccc(Nc3ccc4oc(=O)n(C)c4c3)cc2)CC(C)O1 (stereo not shown) [Compound 420, 5-((4-(2,6-dimethylmorpholino)phenyl)amino)-3-methylbenzo[d]oxazol-2(3H)-one] | 0.1 to 100
3 | CC1CN(c2ccc(Nc3ccc4c(cnn4C)c3)cc2)CC(C)O1 (stereo not shown) [Compound 422, N-(4-(2,6-dimethylmorpholino)phenyl)-1-methyl-1H-indazol-5-amine] | 0.1 to 100
4 | CC1CN(c2ccc(Nc3ccc4nn(C)cc4c3)cc2)CC(C)O1 (stereo not shown) [Compound 423, N-(4-(2,6-dimethylmorpholino)phenyl)-2-methyl-2H-indazol-5-amine] | 0.1 to 100
5 | CC1CN(c2ccc(Nc3ccc4c(c3)c(C(N)=O)cn4C)cc2)CC(C)O1 (stereo not shown) [Compound 425, 5-((4-(2,6-dimethylmorpholino)phenyl)amino)-1-methyl-1H-indole-3-carboxamide] | 0.1 to 100
6 | CC1CN(c2ccc(Nc3ccc4c(c3)n(C)c(=O)n4CCN(C)C)cc2)CC(C)O1 (stereo not shown) [Compound 426, 1-(2-(dimethylamino)ethyl)-5-((4-(2,6-dimethylmorpholino)phenyl)amino)-3-methyl-1,3-dihydro-2H-benzo[d]imidazol-2-one] | 0.1 to 100
7 | CC1CN(c2ccc(Nc3ccc4c(c3)C(C)(C)C(=O)N4C)cc2)CC(C)O1 (stereo not shown) [Compound 428, 5-((4-(2,6-dimethylmorpholino)phenyl)amino)-1,3,3-trimethylindolin-2-one] | 0.1 to 100
8 | CC1CN(c2ccc(Nc3ccc4c(c3)CN(C)C4)cc2)CC(C)O1 (stereo not shown) [Compound 430, N-(4-(2,6-dimethylmorpholino)phenyl)-2-methylisoindolin-5-amine] | 0.1 to 100
9 | CC1CN(c2ccc(Nc3ccc4c(=O)n(C)[nH]c4c3)cc2)CC(C)O1 (stereo not shown) [Compound 432, 6-((4-(2,6-dimethylmorpholino)phenyl)amino)-2-methyl-1H-indazol-3(2H)-one] | 0.1 to 100
10 | O=c1[nH]c2cc(Nc3ccc(N4CCC(C(F)(F)F)CC4)cc3)ccc2o1 [Compound 433, 5-((4-(4-(trifluoromethyl)piperidin-1-yl)phenyl)amino) benzo[d]oxazol-2(3H)-one] | 0.1 to 100
11 | CC1CN(c2ccc(Nc3ccc4c(c3)ncn4C)cc2)CC(C)O1 (stereo not shown) [Compound 434, N-(4-(2,6-dimethylmorpholino)phenyl)-1-methyl-1H-benzo[d]imidazol-5-amine] | 0.1 to 100
12 | CC1CN(c2ccc(Nc3ccc4c(c3)nc(N)n4C)cc2)CC(C)O1 (stereo not shown) [Compound 435] | 0.1 to 100
13 | Cc1cc(N2CC(C)OC(C)C2)ccc1Nc1ccc2c(c1)C(C)(C)C(=O)N2C (stereo not shown) [Compound 438, 5-((4-(2,6-dimethylmorpholino)-2-methylphenyl)amino)-1,3,3-trimethylindolin-2-one] | 0.1 to 100
14 | Cc1cc(N2CC(C)OC(C)C2)ccc1Nc1ccc2c(c1)CNC2 (stereo not shown) [Compound 440, N-(4-(2,6-dimethylmorpholino)-2-methylphenyl)isoindolin-5-amine] | 0.1 to 100
15 | CC1CN(c2ccc(Nc3ccc4oc(=O)[nH]c4c3)cc2)CC(C)O1 (stereo not shown) [Compound 441, 5-((4-(2,6-dimethylmorpholino)phenyl)amino)benzo[d]oxazol-2(3H)-one] | 0.1 to 100
16 | CC1CN(c2ccc(Nc3ccc4c(C(N)=O)cn(C)c4c3)cc2)CC(C)O1 (stereo not shown) [Compound 442, 6-((4-(2,6-dimethylmorpholino)phenyl)amino)-1-methyl-1H-indole-3-carboxamide] | 0.1 to 100
17 | Cc1cc(N2CC(C)OC(C)C2)ccc1Nc1ccc2[nH]ncc2c1 (stereo not shown) [Compound 443, N-(4-(2,6-dimethylmorpholino)-2-methylphenyl)-1H-indazol-5-amine] | 0.1 to 100
18 | Cc1cc(N2CC(C)OC(C)C2)ccc1Nc1ccc2c(c1)c(C(N)=O)cn2C (stereo not shown) [Compound 444, 5-((4-(2,6-dimethylmorpholino)-2-methylphenyl)amino)-1-methyl-1H-indole-3-carboxamide] | 0.1 to 100
19 | Cc1cc(N2CC(C)OC(C)C2)ccc1Nc1ccc2nn(C)cc2c1 (stereo not shown) [Compound 445, N-(4-(2,6-dimethylmorpholino)-2-methylphenyl)-2-methyl-2H-indazol-5-amine] | 0.1 to 100

Now from value to compound:

Row | EC50 [nM] | Structure (SMILES)
20 | 0.1 to 100 | NC(=O)NCCn1cc2cc(Nc3ccc(N4CCC(C(F)(F)F)CC4)cc3)ccc2n1 [Compound 419, 1-(2-(5-((4-(4-(trifluoromethyl)piperidin-1-yl)phenyl)amino)-2H-indazol-2-yl)ethyl)urea]
21 | 0.1 to 100 | NC(=O)NCCn1ncc2cc(Nc3ccc(N4CCC(C(F)(F)F)CC4)cc3)ccc21 [Compound 421, 1-(2-(5-((4-(4-(trifluoromethyl)piperidin-1-yl)phenyl)amino)-1H-indazol-1-yl)ethyl)urea]
22 | 0.1 to 100 | CC1CN(c2ccc(Nc3ccc4c(c3)oc(=O)n4CCN(C)C)cc2)CC(C)O1 (stereo not shown) [Compound 424]
23 | 0.1 to 100 | CNCCn1c(=O)oc2ccc(Nc3ccc(N4CC(C)OC(C)C4)cc3)cc21 (stereo not shown) [Compound 427, 5-((4-(2,6-dimethylmorpholino)phenyl)amino)-3-(2-(methylamino)ethyl) benzo[d]oxazol-2(3H)-one]
24 | 0.1 to 100 | CN(C)CCn1c(=O)oc2ccc(Nc3ccc(N4CCC(C(F)(F)F)CC4)cc3)cc21 [Compound 429, 3-(2-(dimethylamino)ethyl)-5-((4-(4-(trifluoromethyl)piperidin-1-yl)phenyl)amino)benzo[d]oxazol-2(3H)-one]
25 | 0.1 to 100 | CC1CN(c2ccc(Nc3ccc4c(c3)CNC4)cc2)CC(C)O1 (stereo not shown) [Compound 431, N-(4-(2,6-dimethylmorpholino)phenyl)isoindolin-5-amine]
26 | 0.1 to 100 | CNCCn1c(=O)n(C)c2cc(Nc3ccc(N4CC(C)OC(C)C4)cc3)ccc21 (stereo not shown) [Compound 436, 5-((4-(2,6-dimethylmorpholino)phenyl)amino)-3-methyl-1-(2-(methylamino)ethyl)-1H-benzo[d]imidazol-2(3H)-one]
27 | 0.1 to 100 | Cc1cc(N2CC(C)OC(C)C2)ccc1Nc1ccc2c(cnn2C)c1 (stereo not shown) [Compound 437, N-(4-(2,6-dimethylmorpholino)-2-methylphenyl)-1-methyl-1H-indazol-5-amine]
28 | 0.1 to 100 | Cc1cc(N2CC(C)OC(C)C2)ccc1Nc1ccc2c(c1)CN(C)C2 (stereo not shown) [Compound 439, N-(4-(2,6-dimethylmorpholino)-2-methylphenyl)-2-methylisoindolin-5-amine]
29 | 0.1 to 100 | Cc1cc(N2CC(C)OC(C)C2)ccc1Nc1ccc2oc(=O)n(C)c2c1 (stereo not shown) [Compound 446, 5-((4-(2,6-dimethylmorpholino)-2-methylphenyl)amino)-3-methylbenzo[d]oxazol-2(3H)-one]
30 | 0.1 to 100 | Cc1cc(N2CC(C)OC(C)C2)ccc1Nc1ccc2c(c1)ncn2C (stereo not shown) [Compound 447, N-(4-(2,6-dimethylmorpholino)-2-methylphenyl)-1-methyl-1H-benzo[d]imidazol-5-amine]

Same assay, conditions: Homo sapiens; HT-1080 cells treated with RSL3; 3-fold, 10-point dilution, 1.1 μM highest concentration; Table 3; read-out: EC50 (nM), ferroptosis inhibitory activity

Row | Structure (SMILES) | EC50 [nM]
31 | O=C1COc2cc(Nc3ccc(N4CCC(C(F)(F)F)CC4)cc3Cl)ccc2N1 [Compound 448, 7-({2-chloro-4-[4-(trifluoromethyl)piperidin-1-yl]phenyl}amino)-2,4-dihydro-1,4-benzoxazin-3-one] | 0.1 to 100
32 | CC1CN(c2ccc(Nc3ccc4c(c3)N(C)C(=O)C4(C)C)cc2)CC(C)O1 (stereo not shown) [Compound 449, 6-((4-(2,6-dimethylmorpholino)phenyl)amino)-1,3,3-trimethylindolin-2-one] | 0.1 to 100
33 | O=C1COc2cc(Nc3ccc(N4CCC(C(F)(F)F)CC4)cc3)cnc2N1 [Compound 450, 7-((4-(4-(trifluoromethyl)piperidin-1-yl)phenyl)amino)-2H-pyrido[3,2-b][1,4]oxazin-3(4H)-one] | 0.1 to 100
34 | Cc1cc(N2CCC(C(F)(F)F)CC2)ncc1Nc1ccc2c(c1)OCC(=O)N2 [Compound 453, 7-((4-methyl-6-(4-(trifluoromethyl)piperidin-1-yl)pyridin-3-yl)amino)-2H-benzo[b][1,4]oxazin-3(4H)-one] | 0.1 to 100
35 | Cc1c(Nc2ccc3c(c2)OCC(=O)N3)ccc(N2CCC(C(F)(F)F)CC2)c1F [Compound 454, 7-((3-fluoro-2-methyl-4-(4-(trifluoromethyl)piperidin-1-yl)phenyl)amino)-2H-benzo[b][1,4]oxazin-3(4H)-one] | 0.1 to 100
36 | Cc1cc(Nc2ccc3c(c2)OCC(=O)N3CCO)ccc1N1CC(C)OC(C)C1 (stereo not shown) [Compound 455, 7-((4-(2,6-dimethylmorpholino)-3-methylphenyl)amino)-4-(2-hydroxyethyl)-2H-benzo[b][1,4]oxazin-3(4H)-one] | 0.1 to 100
37 | Cc1cc(N2CC(C)OC(C)C2)ccc1Nc1ccc2c(c1)OCC(=O)N2CCO (stereo not shown) [Compound 456, 7-((4-(2,6-dimethylmorpholino)-2-methylphenyl)amino)-4-(2-hydroxyethyl)-2H-benzo[b][1,4]oxazin-3(4H)-one] | 0.1 to 100
38 | Cc1cc(N2CC(C)OC(C)C2)ccc1Nc1cnc2c(c1)OCC(=O)N2C (stereo not shown) [Compound 457, 7-((4-(2,6-dimethylmorpholino)-2-methylphenyl)amino)-4-methyl-2H-pyrido[3,2-b][1,4]oxazin-3(4H)-one] | 0.1 to 100

Further lines, results first:

Row | EC50 [nM] | Structure (SMILES)
39 | 0.1 to 100 | CN1C(=O)COc2cc(Nc3ccc(N4CCC(C(F)(F)F)CC4)cc3Cl)ccc21 [Compound 451, 7-((2-chloro-4-(4-(trifluoromethyl)piperidin-1-yl)phenyl)amino)-4-methyl-2H-benzo[b][1,4]oxazin-3(4H)-one]
40 | 0.1 to 100 | Cc1cc(N2CCC(C(F)(F)F)CC2)ncc1Nc1ccc2c(c1)OCC(=O)N2C [Compound 452, 4-methyl-7-((4-methyl-6-(4-(trifluoromethyl)piperidin-1-yl)pyridin-3-yl)amino)-2H-benzo[b][1,4]oxazin-3(4H)-one]
